Reference: patent US20190388425A1, “SUBSTITUTED IMIDAZOPYRIDINPYRIMIDINES” (Bayer Pharma Aktiengesellschaft, priority 2017, published 2019)
pIC50: −log10 of the molar value.

Target: T1, human full-length MKNK1 (Homo sapiens, UniProt Q9BUB5, T385D)
T1 construct: GST (N); purchased Carna Biosciences 02-145; host or cells: insect cells (baculovirus expression system)
Assay: MKNK1 kinase high ATP assay (TR-FRET)
Format: biochemical
Conditions: TR-FRET, 2 mM ATP (high ATP), 15 min preincubation with enzyme, 30 min reaction at 22° C.; read-out: MKNK1 IC50
Experimental: MKNK1 Kinase High ATP Assay
MKNK1-inhibitory activity at high ATP of compounds of the present invention after their preincubation with MKNK1 was quantified employing the TR-FRET-based MKNK1 high ATP assay as described in the following paragraphs.
As substrate for the kinase reaction the biotinylated peptide biotin-Ahx-[…] (C-terminus in amide form) was used, which can be purchased e.g. from the company Biosyntan (Berlin-Buch, Germany).
For the assay 50 nL of a 100 fold concentrated solution of the test compound in DMSO was pipetted into a black low volume 384 well microtiter plate (Greiner Bio-One, Frickenhausen, Germany), 2 μL of a solution of MKNK1 in aqueous assay buffer [50 mM HEPES pH 7.5, 5 mM MgCl2, 1.0 mM dithiothreitol, 0.005% (v/v) Nonidet-P40 (Sigma)] was added and the mixture was incubated for 15 min at 22° C. to allow pre-binding of the test compounds to the enzyme before the start of the kinase reaction. Then the kinase reaction was started by the addition of 3 μL of a solution of adenosine-tri-phosphate (ATP, 3.3 mM=>final conc. in the 5 μL assay volume is 2 mM) and substrate (0.1 μM=>final conc. in the 5 μL assay volume is 0.06 μM) in assay buffer and the resulting mixture was incubated for a reaction time of 30 min at 22° C. The concentration of MKNK1 was adjusted depending of the activity of the enzyme lot and was chosen appropriate to have the assay in the linear range, typical concentrations were in the range of 0.003 μg/mL. The reaction was stopped by the addition of 5 μL of a solution of TR-FRET detection reagents (5 nM streptavidine-XL665 [Cisbio Bioassays, Codolet, France] and 1 nM anti-ribosomal protein S6 (pSer236)-antibody from Invitrogen [#44921G] and 1 nM LANCE EU-W1024 labeled ProteinG [Perkin-Elmer, product no. AD0071]) in an aqueous EDTA-solution (100 mM EDTA, 0.1% (w/v) bovine serum albumin in 50 mM HEPES pH 7.5).
The resulting mixture was incubated for 1 h at 22° C. to allow the formation of complex between the phosphorylated biotinylated peptide and the detection reagents. Subsequently the amount of phosphorylated substrate was evaluated by measurement of the resonance energy transfer from the Eu-chelate to the streptavidine-XL. Therefore, the fluorescence emissions at 620 nm and 665 nm after excitation at 350 nm were measured in a TR-FRET reader, e.g. a Rubystar (BMG Labtechnologies, Offenburg, Germany) or a Viewlux (Perkin-Elmer). The ratio of the emissions at 665 nm and at 622 nm was taken as the measure for the amount of phosphorylated substrate.

T1 sequence (Q9BUB5 1-424 isoform Q9BUB5-2 T344D): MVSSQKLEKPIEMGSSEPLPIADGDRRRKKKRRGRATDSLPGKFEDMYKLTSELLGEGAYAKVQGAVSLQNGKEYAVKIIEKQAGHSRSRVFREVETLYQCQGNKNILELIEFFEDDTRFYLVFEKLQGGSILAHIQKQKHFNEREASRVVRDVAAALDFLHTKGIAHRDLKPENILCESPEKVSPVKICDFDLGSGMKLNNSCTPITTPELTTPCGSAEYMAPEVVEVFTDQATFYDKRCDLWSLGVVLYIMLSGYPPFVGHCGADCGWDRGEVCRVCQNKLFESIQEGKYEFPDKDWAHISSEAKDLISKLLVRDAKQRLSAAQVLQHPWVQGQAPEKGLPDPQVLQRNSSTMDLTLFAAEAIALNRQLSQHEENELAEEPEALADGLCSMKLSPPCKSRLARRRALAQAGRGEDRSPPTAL

Structure (SMILES) | pIC50
Cc1cc(Nc2ncnc3sc4c(c23)CC[C@H](C(=O)N2CC(C#N)C2)C4)c(=O)n2c1C(=O)NC21CCCC1 [Example 39, 1-({(7S)-4-[(8′-Methyl-1′,5′-dioxo-1′,5′-dihydro-2′H-spiro[cyclopentane-1,3′-imidazo[1,5-a]pyridin]-6′-yl)amino]-5,6,7,8-tetrahydro[1]benzothieno[2,3-d]pyrimidin-7-yl}carbonyl)azetidine-3-carbonitrile] | 8.48
Cc1cc(Nc2ncnc3sc4c(c23)CC[C@H](C(=O)N2CC(N(C)C)C2)C4)c(=O)n2c1C(=O)NC21CCCC1 [Example 40, 6′-{[(7S)-7-{[3-(Dimethylamino)azetidin-1-yl]carbonyl}-5,6,7,8-tetrahydro[1]benzothieno[2,3-d]pyrimidin-4-yl]amino}-8′-methyl-2′H-spiro[cyclopentane-1,3′-imidazo[1,5-a]pyridine]-1′,5′-dione] | 9.52
Cc1cc(Nc2ncnc3sc4c(c23)CC[C@H](C(=O)N2CC[C@H](N(C)C)C2)C4)c(=O)n2c1C(=O)NC21CCCC1 [Example 41, 6′-{[(7S)-7-{[(3S)-3-(Dimethylamino)pyrrolidin-1-yl]carbonyl}-5,6,7,8-tetrahydro[1]benzothieno[2,3-d]pyrimidin-4-yl]amino}-8′-methyl-2′H-spiro[cyclopentane-1,3′-imidazo[1,5-a]pyridine]-1′,5′-dione] | 8.92
Cc1cc(Nc2ncnc3sc4c(c23)CC[C@H](C(=O)O)C4)c(=O)n2c1C(=O)NC21CCC(F)(F)CC1 [Example 42, (7S)-4-[(4,4-Difluoro-8′-methyl-1′,5′-dioxo-1′,5′-dihydro-2′H-spiro[cyclohexane-1,3′-imidazo[1,5-a]pyridin]-6′-yl)amino]-5,6,7,8-tetrahydro[1]benzothieno[2,3-d]pyrimidine-7-carboxylic acid] | 7.61
Cc1cc(Nc2ncnc3sc4c(c23)CCCC4)c(=O)n2c1C(=O)NC21CCCCC1 [Example 43, 8′-Methyl-6′-(5,6,7,8-tetrahydro[1]benzothieno[2,3-d]pyrimidin-4-ylamino)-2′H-spiro[cyclohexane-1,3′-imidazo[1,5-a]pyridine]-1′,5′-dione] | 8.00
Cc1cc(Nc2ncnc3sc4c(c23)CC[C@H](C(=O)O)C4)c(=O)n2c1C(=O)NC21CSC1 [Example 44, (7S)-4-[(8-Methyl-1,5-dioxo-1,5-dihydro-2H-spiro[imidazo[1,5-a]pyridine-3,3′-thietan]-6-yl)amino]-5,6,7,8-tetrahydro[1]benzothieno[2,3-d]pyrimidine-7-carboxylic acid] | 7.76
Cc1cc(Nc2ncnc3sc4c(c23)CC[C@H](C(=O)N(C)C)C4)c(=O)n2c1C(=O)NC21CSC1 [Example 45, (7S)—N,N-Dimethyl-4-[(8-methyl-1,5-dioxo-1,5-dihydro-2H-spiro[imidazo[1,5-a]pyridine-3,3′-thietan]-6-yl)amino]-5,6,7,8-tetrahydro[1]benzothieno[2,3-d]pyrimidine-7-carboxamide] | 9.22
Cc1cc(Nc2ncnc3sc4c(c23)CC[C@H](C(=O)N2CCC2)C4)c(=O)n2c1C(=O)NC21CSC1 [Example 46, 6-{[(7S)-7-(Azetidin-1-ylcarbonyl)-5,6,7,8-tetrahydro[1]benzothieno[2,3-d]pyrimidin-4-yl]amino}-8-methyl-2H-spiro[imidazo[1,5-a]pyridine-3,3′-thietane]-1,5-dione] | 9.22
Cc1cc(Nc2ncnc3sc4c(c23)CC[C@H](C(=O)N2CC(C#N)C2)C4)c(=O)n2c1C(=O)NC21CSC1 [Example 47, 1-({(7S)-4-[(8-Methyl-1,5-dioxo-1,5-dihydro-2H-spiro[imidazo[1,5-a]pyridine-3,3′-thietan]-6-yl)amino]-5,6,7,8-tetrahydro[1]benzothieno[2,3-d]pyrimidin-7-yl}carbonyl)azetidine-3-carbonitrile] | 9.10
Cc1cc(Nc2ncnc3sc4c(c23)CC[C@H](C(=O)N2CC(N(C)C)C2)C4)c(=O)n2c1C(=O)NC21CSC1 [Example 48, 6-{[(7S)-7-{[3-(Dimethylamino)azetidin-1-yl]carbonyl}-5,6,7,8-tetrahydro[1]benzothieno[2,3-d]pyrimidin-4-yl]amino}-8-methyl-2H-spiro[imidazo[1,5-a]pyridine-3,3′-thietane]-1,5-dione] | 9.40
Cc1cc(Nc2ncnc3sc4c(c23)CC[C@H](C(=O)N2CC[C@H](N(C)C)C2)C4)c(=O)n2c1C(=O)NC21CSC1 [Example 49, 6-{[(7S)-7-{[(3S)-3-(Dimethylamino)pyrrolidin-1-yl]carbonyl}-5,6,7,8-tetrahydro[1]benzothieno[2,3-d]pyrimidin-4-yl]amino}-8-methyl-2H-spiro[imidazo[1,5-a]pyridine-3,3′-thietane]-1,5-dione] | 9.30
Cc1cc(Nc2ncnc3sc4c(c23)CC[C@H](C(=O)N2CCN(C)[C@H](C)C2)C4)c(=O)n2c1C(=O)NC21CSC1 [Example 50, 6-{[(7S)-7-{[(3R)-3,4-dimethylpiperazin-1-yl]carbonyl}-5,6,7,8-tetrahydro[1]benzothieno[2,3-d]pyrimidin-4-yl]amino}-8-methyl-2H-spiro[imidazo[1,5-a]pyridine-3,3′-thietane]-1,5-dione] | 9.52
Cc1cc(Nc2ncnc3sc4c(c23)CC[C@H](C(=O)N2C[C@H]3C[C@@H]2CO3)C4)c(=O)n2c1C(=O)NC21CSC1 [Example 51, 8-Methyl-6-({(7S)-7-[(1R,4R)-2-oxa-5-azabicyclo[2.2.1]hept-5-ylcarbonyl]-5,6,7,8-tetrahydro[1]benzothieno[2,3-d]pyrimidin-4-yl}amino)-2H-spiro[imidazo[1,5-a]pyridine-3,3′-thietane]-1,5-dione] | 9.40
Cc1cc(Nc2ncnc3sc4c(c23)CC[C@H](C(=O)N(C)C)C4)c(=O)n2c1C(=O)NC21CCC(F)(F)CC1 [Example 52, (7S)-4-[(4,4-Difluoro-8′-methyl-1′,5′-dioxo-1′,5′-dihydro-2′H-spiro[cyclohexane-1,3′-imidazo[1,5-a]pyridin]-6′-yl)amino]-N,N-dimethyl-5,6,7,8-tetrahydro[1]benzothieno[2,3-d]pyrimidine-7-carboxamide] | 9.22
Cc1cc(Nc2ncnc3sc4c(c23)CC[C@H](C(=O)N2CCC2)C4)c(=O)n2c1C(=O)NC21CCC(F)(F)CC1 [Example 53, 6′-{[(7S)-7-(Azetidin-1-ylcarbonyl)-5,6,7,8-tetrahydro[1]benzothieno[2,3-d]pyrimidin-4-yl]amino}-4,4-difluoro-8′-methyl-2′H-spiro[cyclohexane-1,3′-imidazo[1,5-a]pyridine]-1′,5′-dione] | 7.87
Cc1cc(Nc2ncnc3sc4c(c23)CC[C@H](C(=O)N2CC(C#N)C2)C4)c(=O)n2c1C(=O)NC21CCC(F)(F)CC1 [Example 54, 1-({(7S)-4-[(4,4-Difluoro-8′-methyl-1′,5′-dioxo-1′,5′-dihydro-2′H-spiro[cyclohexane-1,3′-imidazo[1,5-a]pyridin]-6′-yl)amino]-5,6,7,8-tetrahydro[1]benzothieno[2,3-d]pyrimidin-7-yl}carbonyl)azetidine-3-carbonitrile] | 8.36
Cc1cc(Nc2ncnc3sc4c(c23)CC[C@H](C(=O)N2CC(N(C)C)C2)C4)c(=O)n2c1C(=O)NC21CCC(F)(F)CC1 [Example 55, 6′-{[(7S)-7-{[3-(Dimethylamino)azetidin-1-yl]carbonyl}-5,6,7,8-tetrahydro[1]benzothieno[2,3-d]pyrimidin-4-yl]amino}-4,4-difluoro-8′-methyl-2′H-spiro[cyclohexane-1,3′-imidazo[1,5-a]pyridine]-1′,5′-dione] | 9.22
